Results taken from ChEMBL document CHEMBL1275247, “Pharmacokinetics and safety of CXA-101, a new antipseudomonal cephalosporin, in healthy adult male and female subjects receiving single- and multiple-dose intravenous infusions” (Antimicrob Agents Chemother, 2010).

Experiments:
[1] = Tmax in healthy human at 1000 mg, iv administered as 1 hr infusion every 8 hrs for 10 days measured on day 1; type: ADME, organism-based; settings: in vivo
[2] = Volume of distribution at steady state in healthy human at 2000 mg, iv administered as single dose as 1 hr iv infusion; type: ADME, organism-based; settings: in vivo
[3] = AUC (0 to infinity) in healthy human at 1500 mg, iv administered as single dose as 1 hr iv infusion; type: ADME, organism-based; set-up: dose 1500 mg, time infinity, route intravenous; settings: plasma
[4] = Tmax in healthy human at 1500 mg, iv administered as single dose as 1 hr iv infusion; type: ADME, organism-based; settings: in vivo
[5] = Half-life in plasma of healthy human 500 mg administered as single ascending dose, iv for 1 hr infusion; type: ADME, organism-based
[6] = Half-life in plasma of healthy human 1000 mg, iv administered as 1 hr infusion every 8 hrs for 10 days measured on day 1; type: ADME, organism-based
[7] = Volume of distribution at steady state in healthy human at 1000 mg, iv administered as single dose as 1 hr iv infusion; type: ADME, organism-based; settings: in vivo
Homo sapiens [8] = assay: Toxicity in healthy human assessed as occurrence of vulvo-vaginal pruritus at 1500 mg, iv administered as single dose as 1 hr iv infusion; type: organism-based; settings: in vivo
[9] = AUC (0 to infinity) in healthy human at 1000 mg, iv administered as single dose as 1 hr iv infusion; type: ADME, organism-based; set-up: dose 1000 mg, route intravenous, time infinity; settings: plasma
[10] = Clearance in healthy human at 1000 mg, iv administered as 1 hr infusion every 8 hrs for 10 days measured on day 10; type: ADME, organism-based; settings: in vivo
[11] = Clearance in healthy human at 500 mg, iv administered as 1 hr infusion every 8 hrs for 10 days measured on day 10; type: ADME, organism-based; settings: in vivo
[12] = Drug recovery in urine of healthy human at 1500 mg, iv administered as 1 hr infusion every 12 hrs for 10 days measured on day 10; type: ADME, organism-based; settings: read-out: Activity
[13] = Cmax in healthy human at 1500 mg, iv administered as single dose as 1 hr iv infusion; type: ADME, organism-based; set-up: dose 1500 mg, route intravenous; settings: in vivo
[14] = Cmax in healthy human at 1000 mg, iv administered as 1 hr infusion every 8 hrs for 10 days measured on day 10; type: ADME, organism-based; set-up: dose 1000 mg, route intravenous; settings: in vivo
[15] = Tmax in healthy human at 2000 mg, iv administered as single dose as 1 hr iv infusion; type: ADME, organism-based; settings: in vivo
[16] = Renal clearance in healthy human at 1500 mg, iv administered as 1 hr infusion every 12 hrs for 10 days measured on day 1; type: ADME, organism-based, Kidney; settings: in vivo, read-out: CL_renal
[17] = Clearance in healthy human at 1500 mg, iv administered as 1 hr infusion every 12 hrs for 10 days measured on day 1; type: ADME, organism-based; settings: in vivo
[18] = Renal clearance in healthy human at 2000 mg, iv administered as single dose as 1 hr iv infusion; type: ADME, organism-based, Kidney; settings: in vivo, read-out: CL_renal
[19] = Volume of distribution at steady state in healthy human at 500 mg, iv administered as 1 hr infusion every 8 hrs for 10 days measured on day 10; type: ADME, organism-based; settings: in vivo
[20] = Mean residence time in healthy human at 500 mg, iv administered as 1 hr infusion every 8 hrs for 10 days measured on day 1; type: ADME, organism-based; settings: in vivo
[21] = Clearance in healthy human at 1000 mg, iv administered as single dose as 1 hr iv infusion; type: ADME, organism-based; settings: in vivo
[22] = Clearance in healthy human at 1000 mg, iv administered as 1 hr infusion every 8 hrs for 10 days measured on day 1; type: ADME, organism-based; settings: in vivo
[23] = Half-life in plasma of healthy human 1000 mg, iv administered as 1 hr infusion every 8 hrs for 10 days measured on day 10; type: ADME, organism-based
[24] = Tmax in healthy human at 1500 mg, iv administered as 1 hr infusion every 12 hrs for 10 days measured on day 10; type: ADME, organism-based; settings: in vivo
[25] = Cmax in healthy human at 1500 mg, iv administered as 1 hr infusion every 12 hrs for 10 days measured on day 10; type: ADME, organism-based; set-up: dose 1500 mg, route intravenous; settings: in vivo
Homo sapiens [26] = assay: Toxicity in healthy human assessed as occurrence of hypoaesthesia at 500 mg, iv administered as 1 hr infusion every 8 hrs for 10 days; type: organism-based; settings: in vivo
[27] = Tmax in healthy human at 1000 mg, iv administered as single dose as 1 hr iv infusion; type: ADME, organism-based; settings: in vivo
[28] = Renal clearance in healthy human at 500 mg, iv administered as 1 hr infusion every 8 hrs for 10 days measured on day 10; type: ADME, organism-based, Kidney; settings: in vivo, read-out: CL_renal
[29] = Clearance in healthy human at 1500 mg, iv administered as 1 hr infusion every 12 hrs for 10 days measured on day 10; type: ADME, organism-based; settings: in vivo
[30] = Drug recovery in urine of healthy human at 1500 mg, iv administered as 1 hr infusion every 12 hrs for 10 days measured on day 1; type: ADME, organism-based; settings: read-out: Activity
[31] = Half-life in plasma of healthy human 1500 mg, iv administered as 1 hr infusion every 12 hrs for 10 days measured on day 10; type: ADME, organism-based
[32] = Half-life in plasma of healthy human 500 mg, iv administered as 1 hr infusion every 8 hrs for 10 days measured on day 1; type: ADME, organism-based
[33] = Renal clearance in healthy human at 1000 mg, iv administered as 1 hr infusion every 8 hrs for 10 days measured on day 1; type: ADME, organism-based, Kidney; settings: in vivo, read-out: CL_renal
[34] = Mean residence time in healthy human at 500 mg, iv administered as 1 hr infusion every 8 hrs for 10 days measured on day 10; type: ADME, organism-based; settings: in vivo
[35] = Drug recovery in urine of healthy human at 1500 mg, iv administered as single dose as 1 hr iv infusion after 24 hrs; type: ADME, organism-based; settings: read-out: Activity
[36] = Cmax in healthy human at 2000 mg, iv administered as single dose as 1 hr iv infusion; type: ADME, organism-based; set-up: dose 2000 mg, route intravenous; settings: in vivo
[37] = AUC (0 to infinity) in healthy human at 500 mg, iv administered as 1 hr infusion every 8 hrs for 10 days measured on day 10; type: ADME, organism-based; set-up: dose 500 mg, time infinity, route intravenous; settings: plasma
[38] = Renal clearance in healthy human at 500 mg, iv administered as single dose as 1 hr iv infusion; type: ADME, organism-based, Kidney; settings: in vivo, read-out: CL_renal
[39] = Cmax in healthy human at 500 mg, iv administered as single dose as 1 hr iv infusion; type: ADME, organism-based; set-up: dose 500 mg, route intravenous; settings: in vivo
[40] = Tmax in healthy human at 1500 mg, iv administered as 1 hr infusion every 12 hrs for 10 days measured on day 1; type: ADME, organism-based; settings: in vivo
[41] = Cmax in healthy human at 500 mg, iv administered as 1 hr infusion every 8 hrs for 10 days measured on day 1; type: ADME, organism-based; set-up: dose 500 mg, route intravenous; settings: in vivo
[42] = Drug recovery in urine of healthy human at 1000 mg, iv administered as 1 hr infusion every 8 hrs for 10 days measured on day 1; type: ADME, organism-based; settings: read-out: Activity
[43] = Drug recovery in urine of healthy human at 500 mg, iv administered as 1 hr infusion every 8 hrs for 10 days measured on day 10; type: ADME, organism-based; settings: read-out: Activity
[44] = Tmax in healthy human at 500 mg, iv administered as 1 hr infusion every 8 hrs for 10 days measured on day 1; type: ADME, organism-based; settings: in vivo
[45] = Cmax in healthy human at 1000 mg, iv administered as 1 hr infusion every 8 hrs for 10 days measured on day 1; type: ADME, organism-based; set-up: dose 1000 mg, route intravenous; settings: in vivo
Homo sapiens [46] = assay: Toxicity in healthy human assessed as occurrence of headache at 1000 mg, iv administered as single dose as 1 hr iv infusion; type: organism-based; settings: in vivo

Tmax [1]: 1.03 h | Vd [2]: 14.8 L | AUC(0-inf) [3]: 243 µg·h/mL | Tmax [4]: 1.03 h | half-life [5]: 2.34 h | half-life [6]: 2.38 h | Vd [7]: 16.3 L | AUC(0-inf) [9]: 152 µg·h/mL | clearance [10]: 116 mL/min | clearance [11]: 101 mL/min | dose excreted at 10 day [12]: 105% | Cmax [13]: 87.4 µg/mL | Cmax [14]: 58 µg/mL | Tmax [15]: 1.06 h | CL renal [16]: 119 mL/min | clearance [17]: 114 mL/min | CL renal at 1 h [18]: 92.9 mL/min | Vd [19]: 14 L | MRT [20]: 2.42 h | clearance [21]: 110 mL/min | clearance [22]: 112 mL/min | half-life [23]: 2.69 h | Tmax [24]: 1 h | Cmax [25]: 82.6 µg/mL | Tmax [27]: 1.05 h | CL renal [28]: 87.6 mL/min | clearance [29]: 121 mL/min | dose excreted at 1 day [30]: 104% | half-life [31]: 2.34 h | half-life [32]: 2.21 h | CL renal [33]: 112 mL/min | MRT [34]: 2.32 h | dose excreted at 24 h [35]: 93.4% | Cmax [36]: 128 µg/mL | AUC(0-inf) [37]: 82.9 µg·h/mL | CL renal at 1 h [38]: 90.4 mL/min | Cmax [39]: 32.2 µg/mL | Tmax [40]: 1.03 h | Cmax [41]: 34.3 µg/mL | dose excreted at 1 day [42]: 99.4% | dose excreted at 10 day [43]: 84.6% | Tmax [44]: 1.03 h | Cmax [45]: 52.8 µg/mL
Structure (SMILES): Cn1c(N)c(NC(=O)NCCN)c[n+]1CC1=C(C(=O)O)N2C(=O)[C@@H](NC(=O)/C(=N\OC(C)(C)C(=O)[O-])c3nsc(N)n3)[C@H]2SC1 [CEFTOLOZANE]
Activity (Homo sapiens [8]): Non-toxic | Activity (Homo sapiens [26]): Non-toxic | Activity (Homo sapiens [46]): Non-toxic
